In ChEMBL document CHEMBL1201862, “PubChem BioAssay data set” (2004):
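Values below derive from 48-hour exposures of cells grown in 96-well plates, with endpoints linearly interpolated between the two concentrations bracketing the appropriate inhibition level. At the GI50, growth is halved.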 Calls of active or inactive are those of the source. Cut-off read from the data, not from the text of the source: active = GI50 up to about 1.1 µM and inactive = higher.

How the values were obtained:
Assay in all cases: NCI anticancer screen, dose series, 48 h
COLO 205 = tested on: COLO 205
MDA-N = tested on: MDA-N
NCI-H23 = tested on: NCI-H23
M14 = tested on: M14
MCF7 = tested on: MCF7
HCT-15 = tested on: HCT-15
OVCAR-3 = tested on: OVCAR-3
U-251 = tested on: U-251
SW-620 = tested on: SW-620
SF-539 = tested on: SF-539
KM12 = tested on: KM12
K562 = tested on: K562
TK-10 = tested on: TK-10
EKVX = tested on: EKVX
BT-549 = tested on: BT-549
CAKI-1 = tested on: CAKI-1
SR = tested on: SR
HOP-92 = tested on: HOP-92
HCC 2998 = tested on: HCC 2998

Structure (SMILES)	GI50 (COLO 205)	GI50 (MDA-N)	GI50 (NCI-H23)	GI50 (M14)	GI50 (MCF7)	GI50 (HCT-15) [µM]	GI50 (OVCAR-3)	GI50 (U-251)	GI50 (SW-620)	GI50 (SF-539)	GI50 (KM12)	GI50 (K562)	GI50 (TK-10)	GI50 (EKVX)	GI50 (BT-549)	GI50 (CAKI-1)	GI50 (SR)	GI50 (HOP-92)	GI50 (HCC 2998)
COc1nc(C#CCCCC#N)nc(OC)n1	29.9 µM (inactive)	15.7 µM (inactive)	13.8 µM (inactive)	22.2 µM (inactive)	5.27 µM (inactive)	3.29	13.3 µM (inactive)	13.4 µM (inactive)	15 µM (inactive)	20.5 µM (inactive)	16.9 µM (inactive)	17.9 µM (inactive)	21.6 µM (inactive)	19.8 µM (inactive)	15.9 µM (inactive)	12.8 µM (inactive)	7.38 µM (inactive)		
COc1ccc(NC(=O)CSC(=O)c2ccccc2)c(SCCSSCCSc2cc(OC)ccc2NC(=O)CSC(=O)c2ccccc2)c1	11 µM (inactive)	> 100 µM (inactive)	73.3 µM (inactive)	15.7 µM (inactive)	66.5 µM (inactive)	> 100	9.57 µM (inactive)	> 100 µM (inactive)	> 100 µM (inactive)	> 100 µM (inactive)	8.07 µM (inactive)		> 100 µM (inactive)	72.9 µM (inactive)	> 100 µM (inactive)	18.2 µM (inactive)	3.75 µM (inactive)	84.9 µM (inactive)	
C=CC1(CCC(Br)C(C)(C)Cl)CO1 (stereo not given)	> 10 µM (inactive)	> 10 µM (inactive)		> 10 µM (inactive)	> 10 µM (inactive)	> 10	> 10 µM (inactive)	> 10 µM (inactive)	> 10 µM (inactive)	> 10 µM (inactive)	> 10 µM (inactive)	> 10 µM (inactive)	> 10 µM (inactive)	> 10 µM (inactive)	> 10 µM (inactive)	> 10 µM (inactive)		> 10 µM (inactive)	> 10 µM (inactive)
O=C(c1ccccc1)N1OCCC1Nc1ccc(Br)cc1 (stereo not given)	1.81 µM (inactive)	3.8 µM (inactive)	> 10 µM (inactive)	4.99 µM (inactive)	5.97 µM (inactive)	0.604	> 10 µM (inactive)		0.818 µM (active)	2.08 µM (inactive)		0.423 µM (active)	> 10 µM (inactive)	> 10 µM (inactive)	> 10 µM (inactive)	4.03 µM (inactive)			3.85 µM (inactive)
CCOC(=O)/C(C[C@H]1OC(C)(C)O[C@@H]1[C@H]1COC(C)(C)O1)=N/O	> 100 µM (inactive)	> 100 µM (inactive)	> 100 µM (inactive)	> 100 µM (inactive)	> 100 µM (inactive)	> 100	> 100 µM (inactive)	> 100 µM (inactive)	> 100 µM (inactive)	> 100 µM (inactive)	> 100 µM (inactive)	> 100 µM (inactive)	> 100 µM (inactive)	> 100 µM (inactive)	> 100 µM (inactive)	> 100 µM (inactive)		> 100 µM (inactive)	> 100 µM (inactive)
CC(=O)O[C@@H]1[C@H](C(C)C)[C@@H](OC(C)=O)C/C(C)=C/CC[C@]2(C)O[C@@H]12	> 100 µM (inactive)	> 100 µM (inactive)	> 100 µM (inactive)	> 100 µM (inactive)	> 100 µM (inactive)	> 100	> 100 µM (inactive)	> 100 µM (inactive)	> 100 µM (inactive)		> 100 µM (inactive)	> 100 µM (inactive)	> 100 µM (inactive)	> 100 µM (inactive)	> 100 µM (inactive)	> 100 µM (inactive)		> 100 µM (inactive)	> 100 µM (inactive)
O=C1/C(=C/c2ccccc2)CCCC1CN1CCCCC1 (stereo not given)	3 µM (inactive)	2.11 µM (inactive)	4.97 µM (inactive)	1.89 µM (inactive)	0.428 µM (active)	2.04	1.71 µM (inactive)	13.3 µM (inactive)	1.33 µM (inactive)	3.12 µM (inactive)	1.19 µM (inactive)		2.59 µM (inactive)	15.1 µM (inactive)	2.95 µM (inactive)	1.81 µM (inactive)		2.24 µM (inactive)	15.6 µM (inactive)
CN(CCCNC(=O)c1nn(-c2ccc(Cl)cc2Cl)c2c1Cc1ccccc1-2)CCCNC(=O)c1nn(-c2ccc(Cl)cc2Cl)c2c1Cc1ccccc1-2	1.83 µM (inactive)	1.7 µM (inactive)	2 µM (inactive)	1.8 µM (inactive)	1.55 µM (inactive)	1.84	1.73 µM (inactive)	1.79 µM (inactive)	1.48 µM (inactive)	1.19 µM (inactive)	2.37 µM (inactive)	0.944 µM (active)	1.73 µM (inactive)	1.66 µM (inactive)	2.03 µM (inactive)	1.55 µM (inactive)		1.61 µM (inactive)	1.64 µM (inactive)
CCCCCCCCCCCCCC1=C(O)C(=O)C(CC2=C(O)C(=O)C(CCCCCCCCCCCCC)=C(O)C2=O)=C(O)C1=O	> 100 µM (inactive)	> 100 µM (inactive)	> 100 µM (inactive)	> 100 µM (inactive)	> 100 µM (inactive)		> 100 µM (inactive)	68.2 µM (inactive)	> 100 µM (inactive)	> 100 µM (inactive)	> 100 µM (inactive)	66.1 µM (inactive)	61.4 µM (inactive)	> 100 µM (inactive)	> 100 µM (inactive)	> 100 µM (inactive)	54.1 µM (inactive)	75.2 µM (inactive)	
Cc1noc(-c2ccc(C(=O)O)[nH]2)c1Br	26.1 µM (inactive)	> 100 µM (inactive)	55.6 µM (inactive)	> 100 µM (inactive)	50.1 µM (inactive)	> 100	23.4 µM (inactive)	34.8 µM (inactive)	68.9 µM (inactive)		> 100 µM (inactive)	> 100 µM (inactive)	31.5 µM (inactive)	30.9 µM (inactive)	> 100 µM (inactive)	34.2 µM (inactive)		12.2 µM (inactive)	65 µM (inactive)
CCN(CC)C(=S)SC(C(=O)Nc1nnc(-c2ccccc2)o1)c1ccccc1 (stereo not given)	30.3 µM (inactive)	16.6 µM (inactive)	15.4 µM (inactive)	16.1 µM (inactive)	18.5 µM (inactive)	5.24	15.2 µM (inactive)	16.1 µM (inactive)	28.7 µM (inactive)	25.8 µM (inactive)	20.2 µM (inactive)	15.7 µM (inactive)	44.5 µM (inactive)	18.4 µM (inactive)	13.1 µM (inactive)	19.4 µM (inactive)	5.52 µM (inactive)		
COc1c(OC(C)C)c(OC(C)C)c2oc(=O)n3c2c1C(c1ccccc1-n1c(C)ccc1C)C=C3 (stereo not given)	> 100 µM (inactive)	29.2 µM (inactive)	34.8 µM (inactive)	29.2 µM (inactive)	33 µM (inactive)	61.8	> 100 µM (inactive)	> 100 µM (inactive)	32.5 µM (inactive)	67.5 µM (inactive)	22.9 µM (inactive)	> 100 µM (inactive)	> 100 µM (inactive)	17.6 µM (inactive)	> 100 µM (inactive)	> 100 µM (inactive)		53.7 µM (inactive)	37.9 µM (inactive)
